Consider two compounds from patent US9253987B2, “Antimicrobial agents and methods of use” (Hyprotek, Inc., priority 2010, dated 2016).

For this assay, the system named is leukoplakia lesions within the oral cavity displaying invasive squamous cell carcinoma. Put plainly: Topical treatment of oral leukoplakia / squamous cell carcinoma lesion in a human subject. As to conditions: same human subject, before the antimicrobial agent. In kind it is in vivo. The text has this: In addition to the being diagnosed with chronic periodontitis, the subject developed leukoplakia lesions within the oral cavity displaying invasive squamous cell carcinoma with surrounding carcinoma-in-situ and dysplasia in the right mandibular gingival area. Visual inspection of the lesions appeared as white, translucent patches. […] Previously, the subject's dentists had attempted to treat the chronic periodontitis and leukoplakia with a succession of oral antibiotics, antifungal fluconazole and prolonged courses of chlorhexidine oral rinses, in addition to vigorous dental hygiene.
A single topical application of the antimicrobial agent of the present application in solution form was applied to the right lower mandibular gingival area while the right upper mandibular gingival area remained untreated. Visual inspection of the antimicrobial agent-treated area produced noticeable reduction in both the size and severity of the lesion within approximately 10 hours. Continued daily or twice-daily applications of the antimicrobial agent solution to the right lower mandibular gingival area over 12 days were effective to further reduce the lesion to approximately 1 mm. […] In contrast, the pathology of the untreated right upper mandibular gingival area continued to display signs of invasive squamous cell carcinoma and was only finally removed by surgery post treatment.

The structures appear in SMILES notation.

`[H]/N=C(\N/C(=N/[H])NCCCCCCNC(=N)NC(=N)Nc1ccc(Cl)cc1)Nc1ccc(Cl)cc1` [chlorhexidine]: the “outcome of previous therapy of chronic periodontitis and leukoplakia” value is reported as “failed significantly to improve their condition”. Regarding `OC(Cn1cncn1)(Cn1cncn1)c1ccc(F)cc1F` [fluconazole], the “outcome of previous therapy of chronic periodontitis and leukoplakia” value is “failed significantly to improve their condition”.
